Key:
Type in all cases: in vivo
[1] = tested on: smallflower flatsedge (Cyperus difformis); assay: Test C flooded paddy test; settings: for Flatsedge plant response rating: Flooded Paddy, scale 0 to 100, 0 no effect, 100 complete control; for Plant response rating, Flatsedge: flooded paddy test, scale 0 to 100 (0 no effect, 100 complete control)
Outline: (§1)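 Each species was cultivated to 2 leaves in flooded paddy pots, then treated. After a greenhouse period of 12–14 days, the plants were scored visually relative to controls from 0 (no effect) to 100 (complete control).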

[2] = tested on: duck salad (Heteranthera limosa); assay: Test C flooded paddy test; settings: for Ducksalad plant response rating: Flooded Paddy, scale 0 to 100, 0 no effect, 100 complete control; for Plant response rating, Ducksalad: flooded paddy test, scale 0 to 100 (0 no effect, 100 complete control)
Outline: as §1

[3] = tested on: barnyardgrass (Echinochloa crus-galli); assay: Test C flooded paddy test; settings: for Barnyardgrass plant response rating: Flooded Paddy, scale 0 to 100, 0 no effect, 100 complete control; for Plant response rating, Barnyardgrass: flooded paddy test, scale 0 to 100 (0 no effect, 100 complete control)
Outline: as §1

[4] = tested on: giant foxtail (Setaria faberii); assay: Test C preemergence
Outline: (§2)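 Seeds are planted and treated before emergence; for the postemergence test, plants at 1- to 4-leaf stage (2–18 cm) receive the same formulation, a solvent blend containing surfactant. Plants stay in the greenhouse 12–14 days, then response is scored visually from 0 (none) to 100 (complete control).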

corn (Zea mays) = assay: Test C preemergence; settings: preemergence
Outline: as §2

[5] = tested on: morningglory (Ipomoea hederacea); assay: Test C preemergence
Outline: as §2

[6] = tested on: cocklebur (Xanthium strumarium); assay: Test C preemergence; settings: preemergence
Outline: as §2

kochia (Kochia scoparia) = assay: Test C preemergence
Outline: as §2

[7] = tested on: pigweed (Amaranthus retroflexus); assay: Test C preemergence
Outline: as §2

[8] = tested on: crabgrass (Digitaria sanguinalis); assay: Test C preemergence
Outline: as §2

[9] = tested on: bermudagrass (Cynodon dactylon); assay: Test C preemergence
Outline: as §2

soybean (Glycine max) = assay: Test C preemergence
Outline: as §2

Nightshade = assay: Test C preemergence
[10] = tested on: common ragweed (Ambrosia elatior); assay: Test C preemergence
Outline: as §2

[11] = tested on: woolly cupgrass (Eriochloa villosa); assay: Test C preemergence
Outline: as §2

[12] = tested on: Surinam grass (Brachiaria decumbens); assay: Test C preemergence
Outline: as §2

[13] = tested on: yellow nutsedge (Cyperus esculentus); assay: Test C preemergence
Outline: as §2

[14] = tested on: goosegrass (Eleusine indica); assay: Test C preemergence
Outline: as §2

Sunflower = assay: Test C preemergence; settings: Rate 125 g/ha; scale 0 to 100, 0 no effect, 100 complete control
[15] = tested on: johnsongrass (Sorghum halepense); assay: Test C preemergence
Outline: as §2

[16] = tested on: lambsquarters (Chenopodium album); assay: Test C preemergence
Outline: as §2

[17] = tested on: velvetleaf (Abutilon theophrasti); assay: Test C preemergence
Outline: as §2

[18] = Rate 125 g/ha, scale 0 to 100, 0 no effect, 100 complete control
[19] = preemergence, Rate 62 g/ha, scale 0 to 100
[20] = preemergence, Rate 500 g/ha, visual evaluation after 12 to 14 days
[21] = preemergence, Rate 250 g/ha, scale 0 to 100, 0 no effect, 100 complete control
[22] = Rate 500 g/ha, visual evaluation after 12 to 14 days
[23] = Rate 250 g/ha, scale 0 to 100, 0 no effect, 100 complete control

For `CCCC(C)c1ccn(C2CCN(c3cccc(C(F)(F)F)c3)C2=O)n1` (stereo not shown) [Compound 100], the “Flatsedge plant response rating” value ([1]; Rate 250 g/ha) was 70, the “Flatsedge plant response rating” value ([1]; Rate 500 g/ha) was 90 and the “Plant response rating, Flatsedge” value ([1]; Rate 62 g/ha) was 70. The “Plant response rating, Flatsedge” value ([1]; Rate 125 g/ha) was 70, the “Ducksalad plant response rating” value ([2]; Rate 250 g/ha) was 0 and the “Ducksalad plant response rating” value ([2]; Rate 500 g/ha) was 40. For the same compound, the “Plant response rating, Ducksalad” value ([2]; Rate 62 g/ha) was 0, the “Plant response rating, Ducksalad” value ([2]; Rate 125 g/ha) was 0 and the “Barnyardgrass plant response rating” value ([3]; Rate 250 g/ha) was 0. For the same compound, the “Barnyardgrass plant response rating” value ([3]; Rate 500 g/ha) was 60, the “Plant response rating, Barnyardgrass” value ([3]; Rate 62 g/ha) was 0 and the “Plant response rating, Barnyardgrass” value ([3]; Rate 125 g/ha) was 0. For the same compound, the “Plant response rating, Foxtail, Giant” value [4, 18] was 10, the “Plant response rating, Foxtail, Giant” value [4, 19] was 90 and the “Plant response rating (0 to 100), Foxtail, Giant” value [4, 20] was 100. The “Plant response rating, Foxtail, Giant” value [4, 21] was 40, the “Plant response rating, Corn” value (corn (Zea mays); Rate 62 g/ha, scale 0 to 100) was 20 and the “Plant response rating (0 to 100), Corn” value (corn (Zea mays); [22]) was 20. The “Plant response rating, Corn” value (corn (Zea mays); [23]) was 20, the “Plant response rating, Morningglory” value [5, 18] was 0 and the “Plant response rating, Morningglory” value [5, 19] was 0. For the same compound, the “Plant response rating (0 to 100), Morningglory” value [5, 20] was 0, the “Plant response rating, Morningglory” value [5, 21] was 0 and the “Plant response rating, Cocklebur” value ([6]; Rate 62 g/ha, scale 0 to 100) was 0. The “Plant response rating (0 to 100), Cocklebur” value [6, 22] was 0, the “Plant response rating, Cocklebur” value [6, 23] was 0 and the “Plant response rating, Kochia” value (kochia (Kochia scoparia); [18]) was 0. The “Plant response rating, Kochia” value (kochia (Kochia scoparia); [19]) was 0, the “Plant response rating (0 to 100), Kochia” value (kochia (Kochia scoparia); [20]) was 100 and the “Plant response rating, Kochia” value (kochia (Kochia scoparia); [21]) was 90. The “Plant response rating, Pigweed” value [7, 18] was 0, the “Plant response rating, Pigweed” value [7, 19] was 0 and the “Plant response rating (0 to 100), Pigweed” value [7, 20] was 100. The “Plant response rating, Pigweed” value [7, 21] was 20, the “Plant response rating, Crabgrass” value [8, 18] was 100 and the “Plant response rating, Crabgrass” value [8, 19] was 100. The “Plant response rating (0 to 100), Crabgrass” value [8, 20] was 100, the “Plant response rating, Crabgrass” value [8, 21] was 100 and the “Plant response rating, Bermudagrass” value [9, 18] was 90. For the same compound, the “Plant response rating, Bermudagrass” value [9, 19] was 90, the “Plant response rating (0 to 100 where 0 is no effect and 100 is complete control), Bermudagrass” value [9, 20] was 100 and the “Plant response rating, Bermudagrass” value [9, 21] was 100. For the same compound, the “Plant response rating, Soybean” value (soybean (Glycine max); [18]) was 0, the “Plant response rating, Soybean” value (soybean (Glycine max); [19]) was 0 and the “Plant response rating (0 to 100), Soybean” value (soybean (Glycine max); [20]) was 0. For the same compound, the “Plant response rating, Soybean” value (soybean (Glycine max); [21]) was 0, the “Plant response rating, Nightshade” value (Nightshade; Rate 62 g/ha, scale 0 to 100) was 0 and the “Plant response rating, Nightshade” value (Nightshade; [18]) was 0. The “Plant response rating, Nightshade” value (Nightshade; [23]) was 0, the “Plant response rating, Ragweed, Common” value [10, 18] was 0 and the “Plant response rating, Ragweed, Common” value [10, 19] was 0. The “Plant response rating (0 to 100), Ragweed, Common” value [10, 20] was 0, the “Plant response rating, Ragweed, Common” value [10, 21] was 0 and the “Plant response rating, Cupgrass, Woolly” value [11, 18] was 20. The “Plant response rating, Cupgrass, Woolly” value [11, 19] was 0, the “Plant response rating (0 to 100), Cupgrass, Woolly” value [11, 20] was 100 and the “Plant response rating, Cupgrass, Woolly” value [11, 21] was 20. The “Plant response rating, Surinam grass” value [12, 18] was 0, the “Plant response rating, Surinam grass” value [12, 19] was 0 and the “Plant response rating (0 to 100), Surinam grass” value [12, 20] was 30. The “Plant response rating, Surinam grass” value [12, 21] was 0, the “Plant response rating, Nutsedge” value [13, 18] was 0 and the “Plant response rating, Nutsedge” value [13, 19] was 0. The “Plant response rating (0 to 100), Nutsedge” value [13, 20] was 0, the “Plant response rating, Nutsedge” value [13, 21] was 0 and the “Plant response rating, Goosegrass” value [14, 18] was 90. For the same compound, the “Plant response rating, Goosegrass” value [14, 19] was 80, the “Plant response rating (0 to 100), Goosegrass” value [14, 20] was 100 and the “Plant response rating, Goosegrass” value [14, 21] was 100. For the same compound, the “Plant response rating, Sunflower” value (Sunflower) was 0, the “Plant response rating, Johnsongrass” value [15, 18] was 90 and the “Plant response rating, Johnsongrass” value [15, 19] was 0. For the same compound, the “Plant response rating (0 to 100), Johnsongrass” value [15, 20] was 100, the “Plant response rating, Johnsongrass” value [15, 21] was 90 and the “Plant response rating, Lambsquarters” value [16, 18] was 100. The “Plant response rating, Lambsquarters” value [16, 19] was 90, the “Plant response rating (0 to 100), Lambsquarters” value [16, 20] was 100 and the “Plant response rating, Lambsquarters” value [16, 21] was 100. The “Plant response rating, Velvetleaf” value [17, 18] was 0, the “Plant response rating, Velvetleaf” value [17, 19] was 0 and the “Plant response rating (0 to 100), Velvetleaf” value [17, 20] was 0. The “Plant response rating, Velvetleaf” value [17, 21] was 0.
